Laboratory results taken from patent US8586552B2, “4,6-substituted 2,5-dideoxystreptamine aminoglycoside antibiotics” (SelectX Pharmaceuticals, Inc., priority 2012, dated 2013).

Tests used:
[1] = tested on: Klebsiella pneumoniae (Kpn, KPWT, ATCC #700603); test: MIC against Klebsiella pneumoniae reference strain KPWT; format: cell-based; conditions: Klebsiella pneumonia KPWT, Table 5 (unit not given); in µg/mL
P. aeruginosa 6294 MLP-3 = test: Rat neutropenic thigh model; format: in vivo
Experimental: The compound identified as SXP 2523 was selected for further testing in vivo. Twenty male Sprague Dawley rats were pre-treated with cyclophosphamide to render them neutropenic on day −4 and day −1 with 100 mg/kg and 75 mg/kg respectively. Rats were infected with P. aeruginosa 6294 MLP-3, via injection into the right thigh muscle of 0.1 mL per rat. Two hours post infection rats were treated intravenously with either SXP-2523 or amikacin in a total dose of 10 or 60 mg/kg, respectively. The test article and control agent were delivered at 2, 4, and 6 hours post infection. Five rats were treated with each drug concentration. One group of five rats was euthanized at initiation of treatment and thigh CFUs were processed (T=Rx). Twenty-four hours post infection rats were euthanized by CO2 inhalation. The right thigh muscles of the rats were aseptically removed, weighed, homogenized, serially diluted, and plated on MacConkey medium. The plates were incubated overnight at 37° C. in 5% CO2. CFU per gram of thigh was calculated by enumerating the plated colonies then adjusting for serial dilutions and the weight of the thigh. The following table 7 summarizes the results Table 6: […]

[2] = Log CFU/thigh, total dose 10 mg/kg SXP-2523 or 60 mg/kg amikacin iv

**Q.** What does the source list for `NCCCNCC1OC(OC2C(NC(=O)C(O)CCN)CC(N)C(OC3OC(CN)C(O)CC3N)C2F)C(O)C(N)C1O` (centres unmarked) [SXP 2523]?
**A.** MIC KPWT [1]: 0.5-1; Change from 24 hr. control (P. aeruginosa 6294 MLP-3; [2]): −0.71; Change from T = Rx controls (P. aeruginosa 6294 MLP-3; [2]): 2.37; Log CFU/thigh (P. aeruginosa 6294 MLP-3; neutropenic male Sprague Dawley rats, iv at 2, 4, 6 h post infection, total dose 10 mg/kg SXP-2523 or 60 mg/kg amikacin, 24 h post infection): 6.55 Log CFU/thigh; efficacy against P. aeruginosa in animal model (P. aeruginosa 6294 MLP-3; rat neutropenic thigh model, total dose 10 mg/kg iv): effective against P. aeruginosa
